Legend:
Format in all cases: cell-based
Moraxella catarrhalis = experiment: MIC against Gram-negative bacteria: Moraxella catarrhalis; conditions: for MIC against M. catarrhalis: 96-well plate, 37° C., 10 h
How it was run: (§1)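 MIC, the lowest recombinant protein concentration giving no bacterial growth, found by two-fold serial dilution of human EGF-domain proteins in triplicate. Inoculum 5×10^5 CFU/mL in LB from cultures at McFarland 0.5; plates incubated at 37° C, 175 rpm shaking.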

Klebsiella pneumonia = experiment: MIC against Gram-negative bacteria: Klebsiella pneumonia; conditions: for MIC against K. pneumonia: 96-well plate, 37° C., 10 h
How it was run: as §1

Citrobacter diversus = experiment: MIC against Gram-negative bacteria: Citrobacter diversus; conditions: for MIC against C. diversus: 96-well plate, 37° C., 10 h
How it was run: as §1

Aeromonas hydrophila = experiment: MIC against Gram-negative bacteria: Aeromonas hydrophila; conditions: for MIC against A. hydrophila: 96-well plate, 37° C., 10 h
How it was run: as §1

Serratia marcescens = experiment: MIC against Gram-negative bacteria: Serratia marcescens; conditions: for MIC against S. marcescens: 96-well plate, 37° C., 10 h
How it was run: as §1

Enterobacter cloacae = experiment: MIC against Gram-negative bacteria: Enterobacter cloacae; conditions: for MIC against E. cloacae: 96-well plate, 37° C., 10 h
How it was run: as §1

Proteus mirabilis = experiment: MIC against Gram-negative bacteria: Proteus mirabilis; conditions: for MIC against P. mirabilis: 96-well plate, 37° C., 10 h
How it was run: as §1

E. coli BL21 = experiment: MIC against Gram-negative bacteria: E. coli BL21; conditions: for MIC against E. coli BL21: 96-well plate, 37° C., 10 h
How it was run: as §1

Pseudomonas aeruginosa = experiment: MIC against Gram-negative bacteria: Pseudomonas aeruginosa; conditions: for MIC against P. aeruginosa: 96-well plate, 37° C., 10 h
How it was run: as §1

Proteus vulgaris = experiment: MIC against Gram-negative bacteria: Proteus vulgaris; conditions: for MIC against P. vulgaris: 96-well plate, 37° C., 10 h
How it was run: as §1

E. coli DH5α = experiment: Antibacterial activity: MIC and growth curve against E. coli DH5α in 96-well plate; conditions: minimal inhibitory concentration against E. coli DH5α; 96-well plate, 5×10^5 CFU/mL, 37° C., judged after 8 h
How it was run: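 MIC taken as lowest protein level with no bacterial growth, tracked by A600 every 30 min during 37 °C, 175 rpm culture. Two-fold protein series 50-12.5 μg/mL final, triplicate wells, against 5×10^5 CFU/mL of LB-washed mid-log cells.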

[1] = Moraxella catarrhalis, 5×10^5 CFU/mL
[2] = Klebsiella pneumonia, 5×10^5 CFU/mL
[3] = Citrobacter diversus, 5×10^5 CFU/mL
[4] = Aeromonas hydrophila, 5×10^5 CFU/mL
[5] = Serratia marcescens, 5×10^5 CFU/mL
[6] = Enterobacter cloacae, 5×10^5 CFU/mL
[7] = Proteus mirabilis, 5×10^5 CFU/mL
[8] = Pseudomonas aeruginosa, 5×10^5 CFU/mL
[9] = Proteus vulgaris, 5×10^5 CFU/mL
[10] = 10 h cultivation at 37° C., 5×10^5 CFU/mL, two-fold serial dilution

Work on “PRT948 (DINECLSNPCSSEGSLDCIQLTNDYLCVCRSAFTGRHCE; listed as Homo sapiens)” yielded an MIC (Moraxella catarrhalis; M. catarrhalis, 10 h cultivation at 37° C.) of 50 µg/mL, an MIC (Klebsiella pneumonia; K. pneumonia, 10 h cultivation at 37° C.) of 12.5 µg/mL and an MIC (Citrobacter diversus; C. diversus, 10 h cultivation at 37° C.) of 12.5 µg/mL. It also gave an MIC (Aeromonas hydrophila; A. hydrophila, 10 h cultivation at 37° C.) of 25 µg/mL, an MIC (Serratia marcescens; S. marcescens, 10 h cultivation at 37° C.) of 50 µg/mL and an MIC (Enterobacter cloacae; E. cloacae, 10 h cultivation at 37° C.) of 50 µg/mL. The MIC (Proteus mirabilis; P. mirabilis, 10 h cultivation at 37° C.) was 25 µg/mL, the MIC (E. coli BL21; E. coli BL21, 10 h cultivation at 37° C.) was 12.5 µg/mL and the MIC (Pseudomonas aeruginosa; P. aeruginosa, 10 h cultivation at 37° C.) was 50 µg/mL. The MIC (Proteus vulgaris; P. vulgaris, 10 h cultivation at 37° C.) was 12.5 µg/mL and the MIC (E. coli DH5α) was 50 µg/mL.
In the case of “PRT1317 (APNPCWPSPCSLLAQCSVSPKGQAQCHCPENYHGDGMVCL; listed as Homo sapiens)”, the “MIC against M. catarrhalis” value (Moraxella catarrhalis; [1]) was 25 µg/mL, the “MIC against K. pneumonia” value (Klebsiella pneumonia; [2]) was 25 µg/mL and the “MIC against C. diversus” value (Citrobacter diversus; [3]) was 50 µg/mL. For the same substance, the “MIC against A. hydrophila” value (Aeromonas hydrophila; [4]) was 25 µg/mL, the “MIC against S. marcescens” value (Serratia marcescens; [5]) was 12.5 µg/mL and the “MIC against E. cloacae” value (Enterobacter cloacae; [6]) was 12.5 µg/mL. For the same substance, the “MIC against P. mirabilis” value (Proteus mirabilis; [7]) was 12.5 µg/mL, the “MIC against E. coli BL21” value (E. coli BL21; E. coli BL21, 5×10^5 CFU/mL) was 12.5 µg/mL and the “MIC against P. aeruginosa” value (Pseudomonas aeruginosa; [8]) was 50 µg/mL. For the same substance, the “MIC against P. vulgaris” value (Proteus vulgaris; [9]) was 50 µg/mL and the MIC (E. coli DH5α) was 50 µg/mL.
With “PRT1295 (RTSPCDNFDCQNGAQCIVRINEPICQCLPGYQGEKCE; listed as Homo sapiens)” the “MIC against M. catarrhalis” value (Moraxella catarrhalis; [1]) was 50 µg/mL, the “MIC against K. pneumonia” value (Klebsiella pneumonia; [2]) was 50 µg/mL and the “MIC against C. diversus” value (Citrobacter diversus; [3]) was 12.5 µg/mL. For the same substance, the “MIC against A. hydrophila” value (Aeromonas hydrophila; [4]) was 50 µg/mL, the “MIC against S. marcescens” value (Serratia marcescens; [5]) was 12.5 µg/mL and the “MIC against E. cloacae” value (Enterobacter cloacae; [6]) was 12.5 µg/mL. For the same substance, the “MIC against P. mirabilis” value (Proteus mirabilis; [7]) was 12.5 µg/mL, the “MIC against E. coli BL21” value (E. coli BL21; E. coli BL21, 5×10^5 CFU/mL) was 50 µg/mL and the “MIC against P. aeruginosa” value (Pseudomonas aeruginosa; [8]) was 12.5 µg/mL. For the same substance, the “MIC against P. vulgaris” value (Proteus vulgaris; [9]) was 50 µg/mL and the MIC (E. coli DH5α) was 12.5 µg/mL.
“PRT233 (DSRGCARWCPQDSSCVNATACRCNPGFSSFSEIITTPMETCD; listed as Homo sapiens)” was tested, and the “MIC (μg/mL) M. catarrhalis” value (Moraxella catarrhalis; M. catarrhalis, 10 h cultivation at 37° C., 5×10^5 CFU/mL) was 25 µg/mL, the “MIC (μg/mL) K. pneumonia” value (Klebsiella pneumonia; K. pneumonia, 10 h cultivation at 37° C., 5×10^5 CFU/mL) was 25 µg/mL and the “MIC (μg/mL) C. diversus” value (Citrobacter diversus; C. diversus, 10 h cultivation at 37° C., 5×10^5 CFU/mL) was 12.5 µg/mL. The “MIC (μg/mL) A. hydrophila” value (Aeromonas hydrophila; A. hydrophila, 10 h cultivation at 37° C., 5×10^5 CFU/mL) was 25 µg/mL, the “MIC (μg/mL) S. marcescens” value (Serratia marcescens; S. marcescens, 10 h cultivation at 37° C., 5×10^5 CFU/mL) was 12.5 µg/mL and the “MIC (μg/mL) E. cloacae” value (Enterobacter cloacae; E. cloacae, 10 h cultivation at 37° C., 5×10^5 CFU/mL) was 12.5 µg/mL. The “MIC (μg/mL) P. mirabilis” value (Proteus mirabilis; P. mirabilis, 10 h cultivation at 37° C., 5×10^5 CFU/mL) was 100 µg/mL, the “MIC (μg/mL) E. coli BL21” value (E. coli BL21; E. coli BL21, 10 h cultivation at 37° C., 5×10^5 CFU/mL) was 25 µg/mL and the “MIC (μg/mL) P. aeruginosa” value (Pseudomonas aeruginosa; P. aeruginosa, 10 h cultivation at 37° C., 5×10^5 CFU/mL) was 12.5 µg/mL. For the same substance, the “MIC (μg/mL) P. vulgaris” value (Proteus vulgaris; P. vulgaris, 10 h cultivation at 37° C., 5×10^5 CFU/mL) was 25 µg/mL and the MIC (E. coli DH5α) was 12.5 µg/mL.
With “PRT1089 (ANPCCSHPCQNRGVCMSVGFDQYKCDCTRTGFYGENCS; listed as Homo sapiens)” the “MIC M. catarrhalis” value (Moraxella catarrhalis; [10]) was 12.5 µg/mL, the “MIC K. pneumonia” value (Klebsiella pneumonia; [10]) was 25 µg/mL and the “MIC C. diversus” value (Citrobacter diversus; [10]) was 25 µg/mL. The “MIC A. hydrophila” value (Aeromonas hydrophila; [10]) was 50 µg/mL, the “MIC S. marcescens” value (Serratia marcescens; [10]) was 25 µg/mL and the “MIC E. cloacae” value (Enterobacter cloacae; [10]) was 12.5 µg/mL. The “MIC P. mirabilis” value (Proteus mirabilis; [10]) was 25 µg/mL, the “MIC E. coli BL21” value (E. coli BL21; [10]) was 25 µg/mL and the “MIC P. aeruginosa” value (Pseudomonas aeruginosa; [10]) was 50 µg/mL. The “MIC P. vulgaris” value (Proteus vulgaris; [10]) was 50 µg/mL and the MIC (E. coli DH5α) was 50 µg/mL.
In the case of “PRT546 (CDCHEAGTAPGVCDPLTGQCYCKENVQGPKCDQCSLGTFSLDAANPKGCTR; listed as Homo sapiens)”, the “MIC against M. catarrhalis” value (Moraxella catarrhalis; 5×10^5 CFU/mL) was 50 µg/mL, the “MIC against K. pneumonia” value (Klebsiella pneumonia; 5×10^5 CFU/mL) was 50 µg/mL and the “MIC against C. diversus” value (Citrobacter diversus; 5×10^5 CFU/mL) was 12.5 µg/mL. For the same substance, the “MIC against A. hydrophila” value (Aeromonas hydrophila; 5×10^5 CFU/mL) was 50 µg/mL, the “MIC against S. marcescens” value (Serratia marcescens; 5×10^5 CFU/mL) was 50 µg/mL and the “MIC against E. cloacae” value (Enterobacter cloacae; 5×10^5 CFU/mL) was 12.5 µg/mL. For the same substance, the “MIC against P. mirabilis” value (Proteus mirabilis; 5×10^5 CFU/mL) was 12.5 µg/mL, the “MIC against E. coli BL21” value (E. coli BL21; 5×10^5 CFU/mL) was 50 µg/mL and the “MIC against P. aeruginosa” value (Pseudomonas aeruginosa; 5×10^5 CFU/mL) was 12.5 µg/mL. The “MIC against P. vulgaris” value (Proteus vulgaris; 5×10^5 CFU/mL) was 25 µg/mL and the MIC (E. coli DH5α) was 12.5 µg/mL.

— patent US9833497B2, “Human originated EGF domain proteins and use of the same” (CHENGDU SOURCEBIO LIMITED-LIABILITY COMPANY, priority 2013, dated 2017)
